The nature of data set [1]: Terminal half life in mouse at 10 mg/kg, po. Details: dose 10 mg/kg, route oral. The format is ADME, organism-based. The note with it: in vivo.
Data set [2] can be described thus: Clearance in mouse at 10 mg/kg, po. Format: ADME, organism-based. The arrangement: dose 10 mg/kg, route oral. The note with it: in vivo.
The subject of data set [3] is Liver microsomes. As to the kind of experiment: Metabolic stability in human liver microsomes assessed as metabolic rate per mg of protein. Format: ADME, Microsome. A general note: Liver microsomes are vesicles of endoplasmic reticulum, rich in cytochrome P450 enzymes.
The subject of data set [4] is Liver microsomes. As to the kind of experiment: Metabolic stability in rat liver microsomes assessed as metabolic rate per mg of protein. The format is ADME, Microsome.
Data set [5] can be described thus: Oral bioavailability in mouse at 10 mg/kg. The note with it: in vivo. The format is ADME, organism-based.
The subject of the next data set is Mus musculus. The data set can be described thus: Volume of distribution in mouse at 10 mg/kg, po. Details: dose 10 mg/kg, route oral. The format is ADME, organism-based. To be noted: in vivo.

The half-life is the time needed for the level to fall by half in the phase considered. The low end stands for rapid decline, the high end for slow decline. What is called CL/F is the apparent clearance, not corrected for the fraction that reaches the circulation. As a reminder, the bioavailability is the share of a dose that reaches the circulation, judged against a reference dose that is usually intravenous. For the molecule `Cc1ccc(C(=O)Nc2ccon2)cc1Nc1ncnc2c1cnn2-c1ccccc1`, in data set [1], the half-life was 4.1 h. In addition, the CL/F in data set [2] was 5 mL/min/kg. The Stability with Liver microsomes [3] was determined as 0 nmol/min; with Liver microsomes [4], 0.005 nmol/min/mg. Moreover, the bioavailability in data set [5] turned out to be 60%. The molecule also displayed a Vd in the data set on Mus musculus of 1.3 L/kg.

The values above are taken from ChEMBL document CHEMBL1144728, “Pyrazolo-pyrimidines: a novel heterocyclic scaffold for potent and selective p38 alpha inhibitors” (Bioorg Med Chem Lett, 2008).
